# Measurements published in patent publication US12466832B2, “Monohydrate and crystalline forms of 6-[(3S,4S)-4-methyl-1-(pyrimidin-2-ylmethyl)pyrrolidin-3-yl]-3-tetrahydropyran-4-yl-7H-imidazo[1,5-a]pyrazin-8-one” (Cardurion Pharmaceuticals, Inc., priority 2018, dated 2025).
# What was measured:
# Assay type in all cases: physicochemical
# [1] = Solubility repeat at pH 1.2 (reverse addition); details: pH 1.2 buffered media, pH 1.2, simulated gastric fluid, thermodynamic from solid, pH maintained at 1.2, reverse addition
# Description: Procedure: pH 1.2 buffered media (0.4 ml) was added to two separate 7 ml vials. For each compound, material was added in portions to the pH 1.2 media. After each addition of compound, the vial was vortex mixed and the pH and appearance was recorded. The samples were adjusted to pH 1.2 with 1M HCl to within 0.05 of the desired pH unit. This was repeated until no further material was available (˜400 mg for each form, which would give a maximum concentration of around 1000 mg/ml if no adjustment was required).
# [2] = Variable temperature XRPD (VT XRPD)
# Description: For variable temperature (VT) experiments the samples were prepared and analysed in an Anton Paar chromed sample holder. A heating/cooling rate of 10° C./min was used with a 2 min isothermal hold before the measurement started. The measurement parameters are as per the standard screening data collection method (detailed above). Measurements were taken at the following temperatures: 25, 50, 75, 100, 160, and 25° C. The sample was then reanalyzed by XRPD after 1 h to check for complete rehydration.
# MH1 was analysed at 25, 50, 75, 100, 160 and 25° C. (10° C./min heating rate and a 2 min wait before the measurement started) on the Empyrean. The sample was then reanalysed by XRPD after 10 and 20 min to check for rehydration.
# Procedure: A second batch of MH2 material was prepared using the same procedure. This sample was then analysed by VTXRPD and by XRPD under vacuum.
# [3] = Solubility assessment of MH1 in solvents (HPLC of liquors, XRPD of isolated solids); details: for solubility at 24 h: organic solvent or mixture, thermodynamic from solid
# Description: Procedure: Four solvents were chosen based on the competitive slurry experiments that favored MH1 as well as for diversity. Combinations of those solvents with water (aw=0.35) were also utilized to verify which hydrate is favored. Mixtures of the solvents with heptane (1:1) were used to check for crystal form with a good antisolvent.
# MH1 (22×104 mg) was suspended in various solvents (11×0.5 ml) and stirred at either 5 or 50° C. for 24 hours at 750 rpm. The solids were isolated by filtration and centrifugation and the liquors were analysed by HPLC to determine their solubility (relative to a standard made up). The solids were also investigated by XRPD. This procedure was also followed for an additional five solvent systems comprising different ratios of THF:heptane and IPA:heptane at either 5 or 50° C. The isolated solids were investigated by XRPD, HPLC and ^1HNMR.
# [4] = pH profiling solubility experiments; details: 24 hours
# Description: Procedure: pH profiling solubility experiments were performed on MH1 and MH2. Solubility was determined in singlicate by suspending sufficient compound in relevant media (1.00 ml) to give a maximum final concentration as shown in the Table 17.
# The suspensions were equilibrated at 25° C., on a Heidolph plate shaker set to 750 rpm for 24 hours. Samples were pH adjusted as required using 0.5M/1M HCl and 0.2M NaOH to within 0.1 of the desired pH unit (where possible). The pHs of the saturated solutions were measured (where applicable) and an appearance was recorded. The suspensions were filtered through a glass fibre C filter (particle retention […]) and diluted appropriately. Quantitation was by HPLC with reference to a standard solution of approximately 0.15 mg/ml in DMSO. Different volumes of the standard, diluted and undiluted sample solutions were injected. The solubility was calculated using the peak areas determined by integration of the peak found at the same retention time as the principal peak in the standard injection.
# [5] = Ethanol:Heptane 1:1, 5° C., 24 hours
# [6] = IPrOAc:0.5% water, 50° C., 24 hours
# [7] = IPrOAc:Heptane 1:1, 5° C., 24 hours
# [8] = IPrOAc:Heptane 1:1, 50° C., 24 hours
# [9] = THF:0.8% water, 5° C., 24 hours
# [10] = THF:Heptane 1:1, 5° C., 24 hours
# [11] = THF:Heptane 1:1, 50° C., 24 hours
structure (smiles),measurement,setting,value
"C[C@@H]1CN(Cc2ncccn2)C[C@H]1c1cn2c(C3CCOCC3)ncc2c(=O)[nH]1 [MH1, 6-[(3S,4S)-4-methyl-1-(pyrimidin-2-ylmethyl)pyrrolidin-3-yl]-3-tetrahydropyran-4-yl-7H-imidazo[1,5-a]pyrazin-8-one]",Solubility,[1],> 153 mg/mL
same,TGA post VT XRPD mass loss,[2],3.2%
same,Form by VT XRPD upon heating,[2]; 75° C.,fully anhydrous
same,Form by VT XRPD after cooling back,[2]; re-cooled to 25° C.,peaks corresponding to MH1 are present
same,Solubility,"[3]; Ethanol, 5° C., 24 hours",>200 mg/mL
same,Solubility,"[3]; Ethanol, 50° C., 24 hours",>200 mg/mL
same,Solubility,"[3]; Ethanol:4.2% water, 5° C., 24 hours",>200 mg/mL
same,XRPD (isolated solid),[3]; [5],MH1 + AH
same,XRPD (isolated solid),"[3]; Heptane, 5° C., 24 hours",MH1
same,XRPD (isolated solid),"[3]; Heptane, 50° C., 24 hours",MH1 + AH
same,XRPD (isolated solid),"[3]; IPA, 5° C., 24 hours",MH1 + AH
same,Solubility,"[3]; IPA, 50° C., 24 hours",>200 mg/mL
same,XRPD (isolated solid),"[3]; IPA:Heptane 1:1, 5° C.",MH1
same,XRPD (isolated solid),"[3]; IPA:Heptane 1:2, 5° C.",MH1
same,XRPD (isolated solid),"[3]; IPA:Heptane 1:2, 50° C.",MH1
same,XRPD (isolated solid),"[3]; IPA:Heptane 1:3, 5° C.",MH1
same,XRPD (isolated solid),"[3]; IPA:Heptane 1:3, 50° C.",MH1
same,solubility at 24 h,"[3]; IPrOAc with 0.5% water, IPrOAc:0.5% water, 5° C., 24 hours",3.8 mg/mL
same,XRPD (isolated solid),"[3]; IPrOAc, 5° C., 24 hours",MH1
same,XRPD (isolated solid),"[3]; IPrOAc, 50° C., 24 hours",MH1 + AH
same,XRPD (isolated solid),"[3]; IPrOAc:0.5% water, 5° C., 24 hours",MH2
same,XRPD (isolated solid),[3]; [6],MH1
same,XRPD (isolated solid),[3]; [7],MH1
same,XRPD (isolated solid),[3]; [8],MH1
same,XRPD (isolated solid),"[3]; THF, 5° C., 24 hours",MH2 + New peaks
same,Solubility,"[3]; THF, 50° C., 24 hours",>200 mg/mL
same,XRPD (isolated solid),[3]; [9],MH2
same,XRPD (isolated solid),[3]; [10],MH1
same,XRPD (isolated solid),[3]; [11],MH1
same,XRPD (isolated solid),"[3]; THF:Heptane 1:2, 5° C.",MH1
same,XRPD (isolated solid),"[3]; THF:Heptane 1:2, 50° C.",MH1
same,XRPD (isolated solid),"[3]; THF:Heptane 2:1, 5° C.",MH2
same,XRPD (isolated solid),"[3]; THF:Heptane 2:1, 50° C.",MH1
same,solubility at 24 h,"[3]; ethanol with 4.2% water, Ethanol:4.2% water, 5° C., 24 hours",> 200 mg/mL
same,solubility at 24 h,"[3]; Ethanol, 5° C., 24 hours",> 200 mg/mL
same,solubility at 24 h,"[3]; Ethanol, 50° C., 24 hours",> 200 mg/mL
same,solubility at 24 h,"[3]; Ethanol:4.2% water, 50° C., 24 hours",> 200 mg/mL
same,solubility at 24 h,[3]; [5],170 mg/mL
same,solubility at 24 h,"[3]; Ethanol:Heptane 1:1, 50° C., 24 hours",> 200 mg/mL
same,solubility at 24 h,"[3]; IPA, 5° C., 24 hours",130 mg/mL
same,solubility at 24 h,"[3]; IPA, 50° C., 24 hours",> 200 mg/mL
same,solubility at 24 h,"[3]; IPA:Heptane 1:1, 5° C.",40 mg/mL
same,solubility at 24 h,"[3]; IPA:Heptane 1:1, 50° C.",> 200 mg/mL
same,solubility at 24 h,"[3]; IPA:Heptane 1:2, 5° C.",14 mg/mL
same,solubility at 24 h,"[3]; IPA:Heptane 1:2, 50° C.",19 mg/mL
same,solubility at 24 h,"[3]; IPA:Heptane 1:3, 5° C.",8 mg/mL
same,solubility at 24 h,"[3]; IPA:Heptane 1:3, 50° C.",10 mg/mL
same,solubility at 24 h,"[3]; IPrOAc, 5° C., 24 hours",11 mg/mL
same,solubility at 24 h,"[3]; IPrOAc, 50° C., 24 hours",6.3 mg/mL
same,solubility at 24 h,[3]; [6],5.6 mg/mL
same,solubility at 24 h,[3]; [7],1.9 mg/mL
same,solubility at 24 h,[3]; [8],2.1 mg/mL
same,solubility at 24 h,"[3]; THF, 5° C., 24 hours",79 mg/mL
same,solubility at 24 h,"[3]; THF, 50° C., 24 hours",> 200 mg/mL
same,solubility at 24 h,[3]; [9],76 mg/mL
same,solubility at 24 h,"[3]; THF:0.8% water, 50° C., 24 hours",> 200 mg/mL
same,solubility at 24 h,[3]; [10],6.3 mg/mL
same,solubility at 24 h,[3]; [11],11 mg/mL
same,solubility at 24 h,"[3]; THF:Heptane 1:2, 5° C.",0.33 mg/mL
same,solubility at 24 h,"[3]; THF:Heptane 1:2, 50° C.",0.62 mg/mL
same,solubility at 24 h,"[3]; THF:Heptane 2:1, 5° C.",17 mg/mL
same,solubility at 24 h,"[3]; THF:Heptane 2:1, 50° C.",21 mg/mL
same,Solubility,"[4]; media pH 1.2, 25° C., pH not maintained, final pH 5.02 (MH1-A), 6.63 (MH2-A)",>275 mg/mL
same,Solubility,"[4]; media pH 4.0, 25° C., listed as MH1-B",>106 mg/mL
same,Solubility,"[4]; media pH 6.5, 25° C., listed as MH1-C",>164 mg/mL
same,Solubility,"[4]; media pH 7.5, 25° C., listed as MH1-D",62 mg/mL
